Tests used:
[1] = test system: fall armyworm (Spodoptera frugiperda) larvae; assay: Initial screen: lyophilized yeast cultures expressing lycotoxin-1 / NNR mutants mixed with insect diet, armyworm larvae assay; conditions: lyophilized yeast culture in pYES2-DEST52/INVSc1 mixed with rehydrated insect diet, oral, 20 newly hatched larvae
[2] = test system: INVSc1-XI-Lyt-1 yeast cells; assay: Scanning electron microscopy of yeast strains expressing variants; format: cell-based, Saccharomyces cerevisiae; conditions: INVSc1-XI-Lyt-1 yeast strain expressing the variant
Experimental: Yeast cells from the plate were suspended in saline (0.85% NaCl) and centrifuged to remove the residual medium. Following a modified procedure of Bang and Pazirandeh [Bang and Pazirandeh. Physical properties and heavy metal uptake of encapsulated Escherichia coli expressing a metal binding gene (NCP). J. Microencapsul. 1999; 16(4): 489-499], the cell pellet was suspended and fixed in 2.5% glutaraldehyde prepared in 100 mM cacodylate buffer, pH 7.2, for 1 h on ice. To remove remaining glutaraldehyde, the cells were rinsed with the buffer twice and then with distilled water once, allowing several minutes for each step. The cells were dehydrated in solutions containing 50, 70, 80 and 100% ethanol successively for 15 min for each treatment. Cells were mounted on the aluminum stub and placed in the desiccator to dry overnight or until needed. The samples were subjected to scanning electron microscopy and analysis (Zeiss Supra 40 VP).

[3] = test system: fall armyworm (Spodoptera frugiperda) larvae; assay: Lethality of single INVSc1-XI-Lyt-1 yeast strain isolates expressing Lyt-1 toxin variants on xylose plates to fall armyworm larvae; format: in vivo; conditions: for relative mortality compared with mutants C3 and A6 (frequency analysis) / mortality compared pairwise (C6 vs B9; A6 vs C3), frequency analysis: SAS Proc Freq, data adjusted for colony size, P<0.05; for relative mortality compared with mutants C3 and A6 (frequency analysis): 20-insect sample; for state of armyworms on plates containing cultures expressing variants: compared with INVSc1-XI control plate; for Day 1 (% killed) / Day 2 (% killed): single isolates grown 3 days on CM xylose URA/TRP plates, 4 plates averaged, 20 larvae/plate, adjusted for colony size
Experimental: Samples of the transformation reactions from each of the multiplex wells were recovered on 86×128 mm rectangular CM glucose URA/TRP-selective plates for 2 days at 30° C. and diluted 10.000-fold in sterile water; then 200 μl was spotted onto the respective CM xylose URA/TRP-selective plates and allowed to grow for 3 days to generate a yeast growth area (spot) expressing toxins. The size of the spot was recorded and used to normalize the percent killed, since the percent is a function of the amount of yeast encountered. Twenty newly hatched armyworm larvae were added to the growth spot on the plate, the plate was covered with a lid having five small 0.4 mm openings in the center protected with cotton organdy cloth, and the lid was sealed to the plate with Microseal ‘A’ film (MJ Research, Waltham, Mass.) cut so that a gasket 5-mm wide could seal the edges. The plates were scored for the number of dead armyworms daily after adding the larvae until the assay was ended. Results from days 1 and 2 were of the greatest importance for a commercially viable insecticide. The multiplexed wells having the mutants showing greatest lethality (positions 8, 9, and 10) were selected and the multiplexed wells containing the lycotoxin-1 inserts in pENTR D TOPO corresponding to those positions were transformed into TOP 10 cells, single colonies picked from spread plates, and a plasmid preparation performed. The sequences of 90 AASM variant single isolates picked from the three most lethal multiplexed wells were determined. Forty-five of these had inserts with complete sequences in the correct orientation. Nine were C3, while 36 of them were unique variants and these were selected for the second lethality assay. They were moved into pSUMOduo/TRP via LR clonase, retransformed into INVSc1-XI yeast, and recovered on CM glucose URA/TRP-selective plates. Single colonies with sequence-verified inserts were picked into CM glucose URA/TRP-selective liquid medium, grown, and diluted 10,000-fold. A 100 μl sample was spotted onto CM xylose URA/TRP-selective plates and analyzed for lethality, along with samples containing C3, in quadruplicate, with 20 newly hatched armyworm larvae added to each plate. The variants were scored for dead armyworms and the percent killed was calculated.
Single colonies were picked from the multiplexed wells for the mutation positions showing greatest lethality. Growing yeast spots containing the individual variants were tested for lethality to fall armyworm larvae. Percent dead on day 2 for C3, B9, A6, and C6 were 71, 97, 74, and 100%, respectively (Table 2). The two AASM mutants B9 and C6 were more lethal than the NNR mutant C3. The numbers are normalized for diameter of the colony on the xylose plates. […] Frequency analysis was performed using SAS Proc Freq (SAS Institute 1999) with data adjusted for colony size and assuming a conservative 20-insect sample for each treatment.

transformed host cell = assay: Expression of variant peptide in transformed host cell (membrane crossing, intracellular membranes); format: cell-based; conditions: expression in a transformed host cell

IWLTALKFLGKHAAKHLAKQQLSKL [wild-type lycotoxin-1]
lethality to armyworms in initial screening [1]: not found to be lethal

IWLTALKFLQKHAAKHLAKHSLSPW (Completely synthesized from synthetic oligonucleotides) [B9, lycotoxin-1 variant with mutations G10Q, Q20H, Q21S, K24P, L25W]
cell surface morphology in scanning electron micrographs [2]: numerous bulges and irregularities on the surface
relative mortality compared with mutants C3 and A6 (frequency analysis) [3]: significantly greater than mortality caused by mutants C3 and A6
state of armyworms on plates containing cultures expressing variants [3]: much smaller and mostly or all dead
Day 1 (% killed) [3]: 0.0%
Day 2 (% killed) [3]: 97%
Day 2 (% killed) ([3]; listed as XI Lyt-1 B9): 97.2%

IWLTALKFSGKHAAKHLAKQQLSPW (Completely synthesized from synthetic oligonucleotides) [C6, lycotoxin-1 variant with mutations L9S, K24P, L25W]
cell surface morphology in scanning electron micrographs [2]: numerous bulges and irregularities on the surface
relative mortality compared with mutants C3 and A6 (frequency analysis) [3]: significantly greater than mortality caused by mutants C3 and A6
mortality compared pairwise (C6 vs B9; A6 vs C3), frequency analysis [3]: not significantly different
state of armyworms on plates containing cultures expressing variants [3]: much smaller and mostly or all dead
Day 1 (% killed) [3]: 3.7%
Day 2 (% killed) [3]: 100%
Day 2 (% killed) ([3]; listed as XI Lyt-1 C6): 100.0%
build-up of intracellular membranes (tubules) on expression (transformed host cell): significant build-up of intracellular membranes

IWLTALKHLGKHAAKHLAKQQLSPW (Completely synthesized from synthetic oligonucleotides) [A6, lycotoxin-1 variant with mutations F8H, K24P, L25W]
cell surface morphology in scanning electron micrographs [2]: numerous bulges and irregularities on the surface
mortality compared pairwise (C6 vs B9; A6 vs C3), frequency analysis [3]: not significantly different
state of armyworms on plates containing cultures expressing variants [3]: much smaller and mostly or all dead
Day 1 (% killed) [3]: 13.2%
Day 2 (% killed) [3]: 74%
Day 2 (% killed) ([3]; listed as XI Lyt-1 A6): 74.1%
